Measured values: publication PMC8600407 (Soft matter, 2021)

Columns and labels:
[1] = tested on: alkaline phosphatase (ALP); conditions: fff derivatives 8 mM, ALP 1.0 or 0.1 UmL^-1
[2] = hydrophobicity of the aromatic group; source not stated; cited from earlier work

Compound | enzymatic hydrogelation, times faster than pB as enzyme trigger [1] | logP [2]
phosphohydroxynaphthoic acid [pNP] | 50–60 times | –
c1ccc(-c2ccccc2)cc1 [biphenyl] | – | 3.71
O=C(O)c1ccc(-c2ccc(OP(=O)(O)O)cc2)cc1 [pBP, phosphohydroxybiphenyl-carboxylic acid] | 50–60 times | –
